# Test: Stability study of polymorph U of Azilsartan Kamedoxomil at 5±3° C. for 6 months
# Type: physicochemical
# Conditions: for 01) Description White to off-white coloured powder / 02) Identification By HPLC: retention time of the major peak should correspond to Azilsartan Kamedoxomil Standard preparation / 03) Loss on drying (at 60° C. under vacuum for 3 hrs) NMT 1.0% w/w / 04) Related substances Method 1: By HPLC (by Area %) i) Azilsartan NMT 1.0% / 04) Related substances Method 1: By HPLC (by Area %) ii) Azilsartan ester NMT 0.3% / 04) Related substances Method 1: By HPLC (by Area %) iii) Impurity at RRT about 1.04 NMT 0.3% / 04) Related substances Method 1: By HPLC (by Area %) iv) Any individual unspecified impurity NMT 0.2% / 04) Related substances Method 1: By HPLC (by Area %) v) Total impurities NMT 2.5% / 04) Related substances Method 2: By GCHS i) Content of 2, 3 butanedione by GCHS: NMT 0.5% / 05) Assay by HPLC (On dried basis) NLT 97.5% w/w and NMT 102.0% w/w: stability testing at 5±3° C.
compound,measurement,setting,value
"CCOc1nc2cccc(C(=O)OCc3oc(=O)oc3C)c2n1Cc1ccc(-c2ccccc2-c2noc(=O)[nH]2)cc1.[K] [polymorph U, (5-methyl-2-oxo-1,3-dioxo-4-yl)methyl-2-ethoxy-1-1{[2′-(5-oxo-4,5-dihydro-1,2,4-oxadiazol-3-yl)biphenyl-4yl]methyl}-1H-benzimidazole-7-carboxylate monopotassium salt]",change in XRPD pattern (polymorphic change),stability testing at 5±3° C. for 6 Months,no change
same,01) Description White to off-white coloured powder,6 M,White
same,02) Identification By HPLC: retention time of the major peak should correspond to Azilsartan Kamedoxomil Standard preparation,6 M,Complies
same,03) Loss on drying (at 60° C. under vacuum for 3 hrs) NMT 1.0% w/w,6 M,0.26% w/w
same,04) Related substances Method 1: By HPLC (by Area %) i) Azilsartan NMT 1.0%,6 M,0.18%
same,04) Related substances Method 1: By HPLC (by Area %) ii) Azilsartan ester NMT 0.3%,6 M,0.01%
same,04) Related substances Method 1: By HPLC (by Area %) iii) Impurity at RRT about 1.04 NMT 0.3%,6 M,0.08%
same,04) Related substances Method 1: By HPLC (by Area %) iv) Any individual unspecified impurity NMT 0.2%,6 M,0.03%
same,04) Related substances Method 1: By HPLC (by Area %) v) Total impurities NMT 2.5%,6 M,0.43%
same,"04) Related substances Method 2: By GCHS i) Content of 2, 3 butanedione by GCHS: NMT 0.5%",6 M,0.13%
same,05) Assay by HPLC (On dried basis) NLT 97.5% w/w and NMT 102.0% w/w,6 M,100.3% w/w
same,01) Description White to off-white coloured powder,Initial,White
same,02) Identification By HPLC: retention time of the major peak should correspond to Azilsartan Kamedoxomil Standard preparation,Initial,Complies
same,03) Loss on drying (at 60° C. under vacuum for 3 hrs) NMT 1.0% w/w,Initial,0.44% w/w
same,04) Related substances Method 1: By HPLC (by Area %) i) Azilsartan NMT 1.0%,Initial,0.19%
same,04) Related substances Method 1: By HPLC (by Area %) ii) Azilsartan ester NMT 0.3%,Initial,0.01%
same,04) Related substances Method 1: By HPLC (by Area %) iii) Impurity at RRT about 1.04 NMT 0.3%,Initial,0.09%
same,04) Related substances Method 1: By HPLC (by Area %) iv) Any individual unspecified impurity NMT 0.2%,Initial,0.03%
same,04) Related substances Method 1: By HPLC (by Area %) v) Total impurities NMT 2.5%,Initial,0.56%
same,"04) Related substances Method 2: By GCHS i) Content of 2, 3 butanedione by GCHS: NMT 0.5%",Initial,0.13% w/w
same,05) Assay by HPLC (On dried basis) NLT 97.5% w/w and NMT 102.0% w/w,Initial,101.7 w/w
same,Stability,studied at 5±3° C.,stable

# — patent US9902717B2, “Process of preparing potassium salt of Azilsartan medoxomil” (Unichem Laboratories Limited, priority 2015, dated 2018)
